Patent EP4790046A1, “NOVEL COMPOUND DERIVED FROM MYRISTICA FRAGRANS, AND ANTICANCER COMPOSITION COMPRISING SAME” (Korea Institute of Science and Technology, priority 2023, dated 2025)
Read-outs that look alike come from different tables or passages of the source.

Experiments:
AGS = assay: alamarBlue cell viability (survival rate, IC50), AGS; format: cell-based; conditions: AGS (gastric cancer)
Source text: (§1) A p-value < 0.05 was considered statistically significant.

23132/87 = assay: alamarBlue cell viability (survival rate, IC50), 23132/87; format: cell-based; conditions: 23132/87 (gastric cancer)
Source text: as §1

SNU-719 = assay: alamarBlue cell viability (survival rate, IC50), SNU-719; format: cell-based
Source text: as §1

SNU-81 = assay: alamarBlue cell viability (survival rate, IC50), SNU-81; format: cell-based
Source text: as §1

SNU-C5 = assay: alamarBlue cell viability (survival rate, IC50), SNU-C5; format: cell-based
Source text: as §1

SW48 = assay: alamarBlue cell viability (survival rate, IC50), SW48; format: cell-based; conditions: SW48 (colorectal cancer)
Source text: as §1

HepG2 = assay: alamarBlue cell viability (survival rate), HepG2; format: cell-based; conditions: HepG2 (liver cancer), compound 10 µM, 48 hours
Source text: as §1

MiaPaCa-2 = assay: alamarBlue cell viability (survival rate), MiaPaCa-2; format: cell-based; conditions: MiaPaCa-2 (pancreatic cancer), compound 10 µM, 48 hours
Source text: as §1

23132/87 cell line = assay: Cell cycle distribution (PI/RNase staining, flow cytometry), 23132/87; format: cell-based; conditions: 48 hours
Description: Cell cycle distribution was analyzed by DNA staining using FxCycle PI/RNase Staining Solution (Invitrogen, USA). The 23132/87 and SW48 cell lines was seeded at densities of 5 × 10^5 and 7 × 10^5cells/well, respectively, in 6-well plates. After 24 hours of culture, cells were starved overnight in serum-free medium. […] Cells were then harvested, fixed with 70% ethanol, and stained with PI/RNase solution. Samples were analyzed by flow cytometry (BD FACSVerse Cell Analyzer and FlowJo software, BD Biosciences, Franklin Lakes, NJ, USA) based on 10,000 events.
(§2) Student's t-test was performed for statistical analysis between the 2 concentrations of the same compound.

23132/87 cells [1] = assay: Apoptosis, Annexin V-FITC/PI staining, flow cytometry, 23132/87; format: cell-based; conditions: for Apoptosis distribution (%), Q2: Annexin V-FITC+/PI+ (late apoptosis and cell death); for Apoptosis distribution (%), Q3: Annexin V-FITC+/PI- (early apoptosis); for Apoptosis distribution (%), Q4: Annexin V-FITC-/PI- (healthy population)
Description: (§3) 23132/87 and SW48 cells were seeded at densities of 5 × 10^5 and 7 × 10^5 cells/well in a 6-well plate and cultured for 24 hours. […] After treatment, cells were harvested and stained using the Annexin V-FITC Early Apoptosis Detection Kit (6592, Cell Signaling Technology, USA). Flow cytometry (BD FACSVerse Cell Analyzer and FlowJo software, BD Biosciences, USA) was applied to analyze the samples based on 10,000 events.
as §2

SW48 cells [2] = assay: Apoptosis, Annexin V-FITC/PI staining, flow cytometry, SW48; format: cell-based; conditions: for Apoptosis distribution (%), Q1 / Apoptosis distribution (%), Q2 / Apoptosis distribution (%), Q3 / Apoptosis distribution (%), Q4: 20 hours; for Apoptosis distribution (%), Q2: Annexin V-FITC+/PI+ (late apoptosis and cell death); for Apoptosis distribution (%), Q3: Annexin V-FITC+/PI- (early apoptosis); for Apoptosis distribution (%), Q4: Annexin V-FITC-/PI- (healthy population)
Description: as §3, §2

caspase-3 and -7 = assay: Caspase-3/7 activity assay (Caspase-Glo 3/7), SW48 cells; format: cell-based; conditions: for Caspase-3/7 activity: RLU relative to DMSO; for caspase-3/7 signal higher than DMSO: SW48
Description: Apoptosis can be activated and progress through either the intrinsic or extrinsic pathway, but caspase-3, the executioner caspase, is involved in most cases. […] Since this enzyme activity is transient, analysis was performed at two time points: 6 hours and 12 hours post-treatment.
Specifically, the Caspase-3/7 activity assay was performed with slight modifications to the manufacturer's protocol (Promega, USA). Briefly, cells were seeded at a density of 5 × 10^3 cells/well in a 96-well plate, cultured for 24 hours, and then treated with the compound at an appropriate concentration for 6 or 12 hours. After treatment, Caspase-Glo 3/7 reagent was added in equal volumes to the treated samples. The plate was then shaken and incubated at room temperature for 2 hours. Enzyme activity was determined by measuring relative light units (RLU) using a Varioskan LUX Multimode Microplate Reader (Thermo Fisher Scientific, USA).

23132/87 cells [3] = assay: Xenograft mouse model, tumor volume, 23132/87 (gastric cancer); format: in vivo, BALB/c/nu/nu mice; conditions: 10 mg/kg intraperitoneal on alternate days, to day 27
Description: (§4) Tumor volume and body weight were measured twice weekly.

SW48 cells [4] = assay: Xenograft mouse model, tumor volume, SW48 (colorectal cancer); format: in vivo, BALB/c/nu/nu mice; conditions: 10 mg/kg intraperitoneal on alternate days, to day 27
Description: as §4

[5] = mouse, in vivo, ip, 10 mg/kg
Description: Female BALB/c/nu/nu mice (5 weeks old) were used in the in vivo model.
As shown in the schematic diagram of Figure 16a, 23132/87 and SW48 cells were injected subcutaneously into mice at densities of 5 × 10^6 cells/mouse and 3 × 10^6 cells/mouse, respectively. […] Tumor volume and body weight were measured twice weekly. On day 27, mice were sacrificed, and major organs (liver, spleen, kidney) and tumor tissue were collected and stored for further analysis. Tumor volume was calculated using the following formula: Volume (mm^3) = (Length) × (Width)^2 × 1/2.

With `C=CCc1cc(OC)c(O[C@H](C)[C@H](c2ccc(O)c(OC)c2)c2ccc(O)c(C(=O)CCCCCCCCc3ccc(O)cc3)c2O)c(OC)c1` [Compound 3, Myricone C] the “Cancer cell line survival rate (%)” value (AGS; compound 10 µM, 48 hours) was 0.16%, the IC50 (AGS; Homo sapiens, 2.5-40 µM, positive control = doxorubicin) was 3620 nM and the IC50 (23132/87; 2.5-40 µM, positive control = doxorubicin) was 2070 nM. The “Cancer cell line survival rate (%)” value (23132/87; compound 10 µM, 48 hours) was 1.77%, the IC50 (SNU-719; SNU719 (gastric cancer), 2.5-40 µM, positive control = doxorubicin) was 2930 nM and the “Cancer cell line survival rate (%)” value (SNU-719; SNU-719 (gastric cancer), compound 10 µM, 48 hours) was 4.30%. For the same compound, the IC50 (SNU-81; SNU81 (colorectal cancer), 2.5-40 µM, positive control = oxaliplatin, read-out: IC50) was 9840 nM, the IC50 (SNU-81; SNU81 cells, compound 2.5-40 µM, read-out: IC50 values) was 9840 nM and the “Cancer cell line survival rate (%)” value (SNU-81; SNU-81 (colorectal cancer), compound 10 µM, 48 hours) was 47.08%. For the same compound, the “Cancer cell line survival rate (%)” value (SNU-C5; SNU-C5 (colorectal cancer), compound 10 µM, 48 hours) was 2.11%, the IC50 (SNU-C5; SNUC5 (colorectal cancer), 2.5-40 µM, positive control = oxaliplatin, read-out: IC50) was 2540 nM and the IC50 (SNU-C5; SNUC5 cells, compound 2.5-40 µM, read-out: IC50 values) was 2540 nM. For the same compound, the IC50 (SW48; Homo sapiens, 2.5-40 µM, positive control = oxaliplatin) was 2550 nM, the “Cancer cell line survival rate (%)” value (SW48; compound 10 µM, 48 hours) was 0.01% and the “Cancer cell line survival rate (%)” value (HepG2) was 1.60%. For the same compound, the “Cancer cell line survival rate (%)” value (MiaPaCa-2) was 2.53%, the “Cell cycle distribution, G1” value (23132/87 cell line; 23132/87, 5 µM) was 63.00% and the “Cell cycle distribution, G2/M” value (23132/87 cell line; 23132/87, 5 µM) was 6.79%. The “Cell cycle distribution, S” value (23132/87 cell line; 23132/87, 5 µM) was 21.23%, the “Cell cycle distribution, Sub G1” value (23132/87 cell line; 23132/87, 5 µM) was 9.15% and the “Cell cycle distribution, G1” value (23132/87 cell line; 23132/87, 10 µM) was 68.93%. The “Cell cycle distribution, G2/M” value (23132/87 cell line; 23132/87, 10 µM) was 6.19%, the “Cell cycle distribution, S” value (23132/87 cell line; 23132/87, 10 µM) was 14.40% and the “Cell cycle distribution, Sub G1” value (23132/87 cell line; 23132/87, 10 µM) was 10.45%. The “G1 phase increase compared to DMSO” value (23132/87 cell line; 23132/87, 10 µM) was “about 10%”, the “G2/M phase decrease compared to DMSO” value (23132/87 cell line; 23132/87, 10 µM) was “about 4%” and the “Apoptosis distribution (%), Q2” value (23132/87 cells [1]; 23132/87, 5 µM, 20 hours) was 9.35%. The “Apoptosis distribution (%), Q3” value (23132/87 cells [1]; 23132/87, 5 µM, 20 hours) was 5.76%, the “Apoptosis distribution (%), Q4” value (23132/87 cells [1]; 23132/87, 5 µM, 20 hours) was 81.57% and the “Apoptosis distribution (%), Q2” value (23132/87 cells [1]; 23132/87, 10 µM, 20 hours) was 10.47%. The “Apoptosis distribution (%), Q3” value (23132/87 cells [1]; 23132/87, 10 µM, 20 hours) was 10.97%, the “Apoptosis distribution (%), Q4” value (23132/87 cells [1]; 23132/87, 10 µM, 20 hours) was 75.00% and the Q3 population (23132/87 cells [1]; 23132/87, 5 µM) was 5.76% ± 0.35%. For the same compound, the “Apoptosis distribution (%), Q1” value (23132/87 cells [1]; 23132/87, 5 µM, 20 hours) was 3.30%, the “Q3 ratio compared with DMSO control” value (23132/87 cells [1]; 23132/87, 5 µM, 20 hours) was “significantly increased” and the Q3 population (23132/87 cells [1]; 23132/87, 10 µM) was 10.97% ± 0.12%. For the same compound, the “Q4 distribution reduction compared to the control group” value (23132/87 cells [1]; 23132/87, 10 µM) was 8.27%, the “Apoptosis distribution (%), Q1” value (23132/87 cells [1]; 23132/87, 10 µM, 20 hours) was 3.59% and the “Q2 ratio increase compared with DMSO control” value (23132/87 cells [1]; 23132/87, 10 µM, 20 hours) was “about 2%”. For the same compound, the “Q3 ratio increase compared with DMSO control” value (23132/87 cells [1]; 23132/87, 10 µM, 20 hours) was roughly 6%, the “Q2 and Q3 with increasing concentrations” value (23132/87 cells [1]; 23132/87, 5 to 10 µM) was “significantly increased” and the “Apoptosis distribution (%), Q1” value (SW48 cells [2]; SW48, 5 µM) was 7.41%. The “Apoptosis distribution (%), Q2” value (SW48 cells [2]; SW48, 5 µM) was 13.80%, the “Apoptosis distribution (%), Q3” value (SW48 cells [2]; SW48, 5 µM) was 13.73% and the “Apoptosis distribution (%), Q4” value (SW48 cells [2]; SW48, 5 µM) was 65.10%. The “Apoptosis distribution (%), Q1” value (SW48 cells [2]; SW48, 10 µM) was 4.97%, the “Apoptosis distribution (%), Q2” value (SW48 cells [2]; SW48, 10 µM) was 22.43% and the “Apoptosis distribution (%), Q3” value (SW48 cells [2]; SW48, 10 µM) was 18.77%. The “Apoptosis distribution (%), Q4” value (SW48 cells [2]; SW48, 10 µM) was 53.87%, the Q2 ratio (SW48 cells [2]; SW48, 5 µM) was 13.80% ± 0.65% and the Q3 ratio (SW48 cells [2]; SW48, 5 µM) was 13.73% ± 0.92%. For the same compound, the “increase in the Q2 population, dose-based comparison” value (SW48 cells [2]; SW48, 5 µM to 10 µM) was “over 8%”, the “Q2 (Annexin V-FITC+/PI+)” value (SW48 cells [2]; SW48, 10 µM) was 22.43% ± 0.30% and the “Q2 increase compared to the control” value (SW48 cells [2]; SW48, 10 µM) was “over 8%”. The Q3 ratio (SW48 cells [2]; SW48, 10 µM) was 18.77% ± 1.07%, the “Q4 distribution reduction compared to the control group” value (SW48 cells [2]; SW48, 10 µM) was 9.43% and the “apoptotic and dead cell population (Q2 and Q3) increase over DMSO” value (SW48 cells [2]; SW48, 10 µM) was roughly 10%. For the same compound, the “Q4 ratio reduction on changing the concentration” value (SW48 cells [2]; SW48, from 5 µM to 10 µM) was “approximately 11.23%”, the Caspase-3/7 activity (caspase-3 and -7; SW48, 5 µM, 6 h) was 1.10 fold and the Caspase-3/7 activity (caspase-3 and -7; SW48, 5 µM, 12 h) was 2.37 fold. The Caspase-3/7 activity (caspase-3 and -7; SW48, 10 µM, 6 h) was 1.89 fold, the Caspase-3/7 activity (caspase-3 and -7; SW48, 10 µM, 12 h) was 2.02 fold and the “caspase-3/7 signal higher than DMSO” value (caspase-3 and -7; high concentration (10 µM), 6 hours) was 2.37 fold. The “caspase-3/7 signal higher than DMSO” value (caspase-3 and -7; low concentration (5 µM), 12 hours) was 1.89 fold, the tumor volume (23132/87 cells [3]) was “smallest tumor volume was observed starting on day 13” and the tumor growth (SW48 cells [4]) was “suppressed compared to the control group”. For the same compound, the “body weight and the weights of major organs (liver, spleen, kidneys)” value [5] was “remained stable”.
